This passage reports IC50 results from patent US8008291B2 (Mimetica Pty Ltd, priority 2008, dated 2011).

For this assay, the target named is T1, human MC5R (hMC5R) (Homo sapiens, UniProt P33032).
T1 construct: purchased Perkin Elmer RBXMC5M400UA
T1 sequence (P33032 whole entry): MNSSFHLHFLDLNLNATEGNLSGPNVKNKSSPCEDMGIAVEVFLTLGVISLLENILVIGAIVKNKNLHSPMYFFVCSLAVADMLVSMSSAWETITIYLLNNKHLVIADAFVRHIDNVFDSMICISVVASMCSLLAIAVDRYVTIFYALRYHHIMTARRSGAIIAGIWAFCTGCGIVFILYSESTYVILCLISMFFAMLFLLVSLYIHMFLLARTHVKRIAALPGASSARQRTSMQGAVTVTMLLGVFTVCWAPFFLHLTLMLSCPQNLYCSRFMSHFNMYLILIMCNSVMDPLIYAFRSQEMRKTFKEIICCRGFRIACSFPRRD
Briefly: Human MC5R radioligand binding assay (membranes, [125I] NDP-MSH displacement). As to conditions: hMC5R binding; tested as trifluoroacetate or hydrochloride salts, or free bases; read-out: MC5R radioligand IC50. An outline of the steps:
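Frozen human MC5R membranes incubated with test compound and in-house iodogen-labeled, HPLC-purified [125I]NDP-MSH for 1 hr at 37° C. Binding measured as displacement of the radioligand.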
Regarding `CC[C@H](CN1CC[C@@H](CNC(=O)c2ccc(-c3ccccc3)cc2)N[C@@H](CCN2CCCCC2)C1=O)c1ccccc1` [Compound 495, N-(((3S,5S)-2-oxo-1-((S)-2-phenylbutyl)-3-(2-(piperidin-1-yl)ethyl)-1,4-diazepan-5-yl)methyl)biphenyl-4-carboxamide], the half-maximal inhibitory concentration (IC50) (as a rule, the point on the concentration scale where inhibition reaches its midpoint) was less than 100 nM. The figure for `CC[C@H](CN1CC[C@@H](CNC(=O)c2csc(-c3ccccc3)n2)N[C@@H](CCN2CCCCC2)C1=O)c1ccccc1` [Compound 496, N-(((3S,5S)-2-oxo-1-((S)-2-phenylbutyl)-3-(2-(piperidin-1-yl)ethyl)-1,4-diazepan-5-yl)methyl)-2-phenylthiazole-4-carboxamide] is less than 100 nM; for `CC[C@H](CN1CC[C@@H](CNC(=O)c2ccccc2-c2ccc(Cl)cc2)N[C@@H](CCN2CCCCC2)C1=O)c1ccccc1` [Compound 497, 4′-chloro-N-(((3S,5S)-2-oxo-1-((S)-2-phenylbutyl)-3-(2-(piperidin-1-yl)ethyl)-1,4-diazepan-5-yl)methyl)biphenyl-2-carboxamide] it is less than 100 nM; for `CC[C@H](CN1CC[C@@H](CNC(=O)c2ccc3cc(Cl)ccc3c2)N[C@@H](CCN(C(C)=O)C(C)C)C1=O)c1ccccc1` [Compound 498, 6-chloro-N-(((3S,5S)-3-(2-(N-isopropylacetamido)ethyl)-2-oxo-1-((S)-2-phenylbutyl)-1,4-diazepan-5-yl)methyl)-2-naphthamide] it is less than 1000 nM. The figure for `CC[C@H](CN1CC[C@@H](CNC(=O)c2ccc3cc(Cl)ccc3c2)N[C@@H](CNC(C)C)C1=O)c1ccccc1` [Compound 499, 6-chloro-N-(((3S,5S)-3-((isopropylamino)methyl)-2-oxo-1-((S)-2-phenylbutyl)-1,4-diazepan-5-yl)methyl)-2-naphthamide] is less than 100 nM; for `CC[C@H](CN1CC[C@@H](CNC(=O)c2ccc3cc(Cl)ccc3c2)N[C@@H](CNC(=N)N)C1=O)c1ccccc1` [Compound 500, 6-chloro-N-(((3S,5S)-3-(guanidinomethyl)-2-oxo-1-((S)-2-phenylbutyl)-1,4-diazepan-5-yl)methyl)-2-naphthamide] it is less than 100 nM; for `NCC[C@@H]1N[C@H](CNC(=O)c2ccc(Cl)c(Cl)c2)CCN(Cc2ccc(Cl)cc2Cl)C1=O` [Compound 502, N-(((3S,5S)-3-(2-aminoethyl)-1-(2,4-dichlorobenzyl)-2-oxo-1,4-diazepan-5-yl)methyl)-3,4-dichlorobenzamide] it is less than 1000 nM. The same measure for `O=C(NC[C@@H]1CCN(Cc2ccc(Cl)cc2Cl)C(=O)[C@H](CCN2CCCCC2)N1)c1ccc(Cl)c(Cl)c1` [Compound 503, 3,4-dichloro-N-(((3S,5S)-1-(2,4-dichlorobenzyl)-2-oxo-3-(2-(piperidin-1-yl)ethyl)-1,4-diazepan-5-yl)methyl)benzamide]: less than 1000 nM; for `CS(=O)(=O)NCC[C@@H]1N[C@H](CNC(=O)c2ccc(Cl)c(Cl)c2)CCN(Cc2ccc(Cl)cc2Cl)C1=O` [Compound 504, 3,4-dichloro-N-(((3S,5S)-1-(2,4-dichlorobenzyl)-3-(2-(methylsulfonamido)ethyl)-2-oxo-1,4-diazepan-5-yl)methyl)benzamide]: less than 10000 nM; for `Cc1ccc(S(=O)(=O)NCC[C@@H]2N[C@H](CNC(=O)c3ccc(Cl)c(Cl)c3)CCN(Cc3ccc(Cl)cc3Cl)C2=O)cc1` [Compound 505, 3,4-dichloro-N-(((3S,5S)-1-(2,4-dichlorobenzyl)-3-(2-(4-methylphenylsulfonamido)ethyl)-2-oxo-1,4-diazepan-5-yl)methyl)benzamide]: less than 10000 nM.

For `CC(C)[C@H](N)C(=O)NCC[C@@H]1N[C@H](CNC(=O)c2ccc(Cl)c(Cl)c2)CCN(Cc2ccc(Cl)cc2Cl)C1=O` [Compound 506, N-(((3S,5S)-3-(2-((S)-2-amino-3-methylbutanamido)ethyl)-1-(2,4-dichlorobenzyl)-2-oxo-1,4-diazepan-5-yl)methyl)-3,4-dichlorobenzamide], the 50% inhibitory concentration (IC50) was less than 10000 nM. Consider `NCC[C@@H]1N[C@H](CNC(=O)c2ccc3cc(Cl)ccc3c2)CCN(Cc2ccc(Cl)cc2Cl)C1=O` [Compound 507, N-(((3S,5S)-3-(2-aminoethyl)-1-(2,4-dichlorobenzyl)-2-oxo-1,4-diazepan-5-yl)methyl)-6-chloro-2-naphthamide], for which the concentration for half-maximal inhibition (IC50) is less than 100 nM. The same measure for `O=C(NC[C@@H]1CCN(Cc2ccc(Cl)cc2Cl)C(=O)[C@H](CCN2CCCCC2)N1)c1ccc2cc(Cl)ccc2c1` [Compound 508, 6-chloro-N-(((3S,5S)-1-(2,4-dichlorobenzyl)-2-oxo-3-(2-(piperidin-1-yl)ethyl)-1,4-diazepan-5-yl)methyl)-2-naphthamide]: less than 100 nM; for `CCC(CN1CC[C@@H](CNC(=O)c2ccc3cc(Cl)ccc3c2)N[C@@H](CCN)C1=O)c1ccsc1` (stereo partly drawn) [Compound 509, N-(((3S,5S)-3-(2-aminoethyl)-2-oxo-1-(2-(thiophen-3-yl)butyl)-1,4-diazepan-5-yl)methyl)-6-chloro-2-naphthamide]: less than 100 nM.

As to `CC[C@@H](CN1CC[C@@H](CNC(=O)c2ccc3cc(Cl)ccc3c2)N[C@@H](CCN2CCCCC2)C1=O)c1ccsc1` [Compound 510, 6-chloro-N-(((3S,5S)-2-oxo-3-(2-(piperidin-1-yl)ethyl)-1-((R)-2-(thiophen-3-yl)butyl)-1,4-diazepan-5-yl)methyl)-2-naphthamide], the IC50 was less than 100 nM. The figure for `CC[C@H](CN1CC[C@@H](CNC(=O)c2ccc3cc(Cl)ccc3c2)N[C@@H](CCN2CCCCC2)C1=O)c1ccsc1` [Compound 511, 6-chloro-N-(((3S,5S)-2-oxo-3-(2-(piperidin-1-yl)ethyl)-1-((S)-2-(thiophen-3-yl)butyl)-1,4-diazepan-5-yl)methyl)-2-naphthamide] is less than 10 nM; for `CCC(C)(CC)CN1CC[C@@H](CNC(=O)c2ccc3cc(Cl)ccc3c2)N[C@@H](CCN)C1=O` [Compound 512, N-(((3S,5S)-3-(2-aminoethyl)-1-(2-ethyl-2-methylbutyl)-2-oxo-1,4-diazepan-5-yl)methyl)-6-chloro-2-naphthamide] it is less than 1000 nM. The figure for `CCC(C)(CC)CN1CC[C@@H](CNC(=O)c2ccc3cc(Cl)ccc3c2)N[C@@H](CCN2CCCCC2)C1=O` [Compound 513, 6-chloro-N-(((3S,5S)-1-(2-ethyl-2-methylbutyl)-2-oxo-3-(2-(piperidin-1-yl)-ethyl)-1,4-diazepan-5-yl)methyl)-2-naphthamide] is less than 100 nM. The same measure for `O=C(NC[C@@H]1CCN(CC(c2ccccc2)c2ccccc2)C(=O)[C@H](CCN2CCOCC2)N1)c1ccc2cc(Cl)ccc2c1` [Compound 514, 6-chloro-N-(((3S,5S)-1-(2,2-diphenylethyl)-3-(2-morpholinoethyl)-2-oxo-1,4-diazepan-5-yl)methyl)-2-naphthamide]: less than 100 nM; for `CC[C@H](CN1CC[C@@H](CNC(=O)c2ccc3cc(Cl)ccc3c2)N[C@@H](CCN2CCOCC2)C1=O)c1ccccc1` [Compound 515, 6-chloro-N-(((3S,5S)-3-(2-morpholinoethyl)-2-oxo-1-((S)-2-phenylbutyl)-1,4-diazepan-5-yl)methyl)-2-naphthamide]: less than 100 nM; for `CC[C@H](CN1CC[C@@H](CNC(=O)NCc2ccc(Cl)cc2)N[C@@H](CCN2CCCCC2)C1=O)c1ccccc1` [Compound 518]: less than 1000 nM.

`CC[C@H](CN1CC[C@@H](CN(Cc2ccc(Cl)c(Cl)c2)C(C)=O)N[C@@H](CCN2CCCCC2)C1=O)c1ccccc1` [Compound 519]: the IC50 was less than 10000 nM. The same measure for `CCC(C)(CC)CN1CC[C@@H](CNC(=O)c2ccc(Cl)c(Cl)c2)N[C@@H](CCN)C1=O` [Compound 520, N-(((3S,5S)-3-(2-aminoethyl)-1-(2-ethyl-2-methylbutyl)-2-oxo-1,4-diazepan-5-yl)methyl)-3,4-dichlorobenzamide]: less than 10000 nM; for `CCC(C)(CC)CN1CC[C@@H](CNC(=O)c2ccc(Cl)c(Cl)c2)N[C@@H](CCN2CCCCC2)C1=O` [Compound 521, 3,4-dichloro-N-(((3S,5S)-1-(2-ethyl-2-methylbutyl)-2-oxo-3-(2-(piperidin-1-yl)ethyl)-1,4-diazepan-5-yl)methyl)benzamide]: less than 100 nM. The same measure for `O=C(NC[C@@H]1CCN(Cc2cc(Cl)cc(Cl)c2Cl)C(=O)[C@H](CCN2CCCCC2)N1)c1ccc2cc(Cl)ccc2c1` [Compound 522, 6-chloro-N-(((3S,5S)-2-oxo-3-(2-(piperidin-1-yl)ethyl)-1-(2,3,5-trichlorobenzyl)-1,4-diazepan-5-yl)methyl)-2-naphthamide]: less than 100 nM.

Regarding `CC[C@H](CN1CC[C@@H](CNC(=O)c2ccc3cc(Cl)ccc3c2)N[C@@H](CCNS(=O)(=O)C(C)C)C1=O)c1ccccc1` [Compound 523, 6-chloro-N-(((3S,5S)-3-(2-(1-methylethylsulfonamido)ethyl)-2-oxo-1-((S)-2-phenylbutyl)-1,4-diazepan-5-yl)methyl)-2-naphthamide], the IC50 is less than 100 nM. The figure for `CCCCOC(=O)NCC[C@@H]1N[C@H](CNC(=O)c2ccc3cc(Cl)ccc3c2)CCN(C[C@@H](CC)c2ccccc2)C1=O` [Compound 524, butyl 2-((2S,7S)-7-((6-chloro-2-naphthamido)methyl)-3-oxo-4-((S)-2-phenylbutyl)-1,4-diazepan-2-yl)ethylcarbamate] is less than 1000 nM; for `CC[C@H](CN1CCC(CNC(=O)c2ccc3cc(Cl)ccc3c2)NC(C2CCN(C(C)C)CC2)C1=O)c1ccccc1` (stereo partly drawn) [Compound 525, (S)-6-chloro-N-((3-(1-isopropylpiperidin-4-yl)-2-oxo-1-(2-phenylbutyl)-1,4-diazepan-5-yl)methyl)-2-naphthamide] it is less than 100 nM. With `CC[C@@H](CN1CC[C@@H](CNC(=O)c2ccc3cc(Cl)ccc3c2)N[C@@H](CCN2CCCCC2)C1=O)c1ccccc1` [Compound 526, 6-chloro-N-(((3S,5S)-2-oxo-1-((R)-2-phenylbutyl)-3-(2-(piperidin-1-yl)ethyl)-1,4-diazepan-5-yl)methyl)-2-naphthamide], the 50% inhibitory concentration (IC50) is less than 10 nM.
